What was measured:
[1] = molecular target: T1, γ-glutamyltranspeptidase (GGT) (Homo sapiens, UniProt P19440); settings: read-out: Km constant (Michaelis-Menten kinetic constant) of GGT; substance as substrate of GGT; cited from earlier work
[2] = molecular target: T1, γ-glutamyltranspeptidase (GGT); assay: Decomposition kinetics of GSNO, absorbance at 334 nm (FIG. 1); format: biochemical
Procedure: GSNO has a absorption band at 334 nm. […] In FIG. 1 in particular, the decomposition kinetics is shown of 50 uM GSNO with GGT 525 mU/mL added at the time t=0. In ordinates the absorbance at 334 nm is shown. […]
At the addition of GGT 525 mU/mL the decrease is observed of the absorbance at 334 nm that indicates the decomposition of GSNO (curve a of FIG. 1). GSNO is quantitatively decomposed, in the adopted operative conditions, in 450 sec.

[3] = blood; cited from earlier work

T1 sequence (P19440 whole entry, species assumed): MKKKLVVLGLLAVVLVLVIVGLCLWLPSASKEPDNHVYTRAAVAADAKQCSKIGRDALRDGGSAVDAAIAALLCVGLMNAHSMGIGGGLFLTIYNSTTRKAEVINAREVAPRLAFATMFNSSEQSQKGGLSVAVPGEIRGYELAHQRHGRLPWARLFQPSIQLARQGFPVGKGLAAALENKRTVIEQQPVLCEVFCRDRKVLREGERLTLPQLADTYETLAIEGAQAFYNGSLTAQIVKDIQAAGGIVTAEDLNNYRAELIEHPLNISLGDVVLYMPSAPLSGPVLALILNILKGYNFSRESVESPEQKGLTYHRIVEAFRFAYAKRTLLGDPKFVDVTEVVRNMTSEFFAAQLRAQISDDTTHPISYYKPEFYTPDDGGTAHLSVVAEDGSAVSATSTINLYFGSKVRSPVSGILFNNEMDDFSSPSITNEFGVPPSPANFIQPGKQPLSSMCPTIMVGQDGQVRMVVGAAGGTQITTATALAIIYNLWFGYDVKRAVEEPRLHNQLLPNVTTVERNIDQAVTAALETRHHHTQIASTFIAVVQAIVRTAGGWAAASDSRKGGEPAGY

time for quantitative decomposition of GSNO ([2]; 50 uM GSNO, GGT 525 mU/mL, phosphate buffer 0.1 M pH 8.0, GlyGly 4.5 mM, Cu(SO4) 100 uM (curve a)) [s] | change of absorbance at 334 nm ([2]; adding only 50 uM of CuSO4 (curve b)) | Structure (SMILES) | Km [1] [µM] | half life in the hematic area [3]
 |  | N[C@@H](CCC(=O)N[C@@H](CS)C(=O)NCC(=O)O)C(=O)O [GSH, reduced glutathione] | 5 to 10 | 
450 | no decrease is observed | N[C@@H](CCC(=O)N[C@@H](CSN=O)C(=O)NCC(=O)O)C(=O)O [GSNO, S-nitrosoglutathione] | 28 | 
 |  | [N]=O [NO, Nitric oxide] |  | about 2 ms
